Test systems include A498 renal; ACHN renal; HCT-15 colon; HS 578T breast; LOX IMVI melanoma; M14 melanoma; MDA-MB-435; OVCAR-3 ovarian; OVCAR-5 ovarian; RPMI-8226 leukemia; RXF 393 renal; SK-MEL-28 melanoma; SK-OV-3 ovarian; SNB-19 CNS; SNB-75 CNS; SW-620 colon.
What all share (assay): NCI-60 cell line screen, 48 h

Structures are written as SMILES.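 Briefly, cells in 96-well plates were exposed to five compound concentrations for 48 h, and endpoints were estimated by linear interpolation. TGI marks complete inhibition of growth.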 Where only a bound is given, the exact number is not on record here.

Take `Oc1ccc(SCc2cc(O)ccc2O)cc1`: the TGI is above 89.4 µM in the test with A498 renal; 26.8 µM with ACHN renal; 30.8 µM with HCT-15 colon; 97 µM with HS 578T breast; above 53.1 µM in the test on LOX IMVI melanoma; 33.7 µM in the test on M14 melanoma. Moreover, the TGI in the test on MDA-MB-435 was 27.1 µM; in the test on OVCAR-3 ovarian, 22.4 µM; in the test on OVCAR-5 ovarian, 49.5 µM; in the test on RPMI-8226 leukemia, above 100 µM; in the test on RXF 393 renal, 25.5 µM; in the test on SK-MEL-28 melanoma it was 46.7 µM. Also, the TGI in the test with SK-OV-3 ovarian is above 96.7 µM; with SNB-19 CNS, above 80.2 µM; in the test with SNB-75 CNS it was above 65.9 µM; in the test on SW-620 colon, above 62.8 µM.
Consider `CC(C)=CCc1c2c(c(O)c3c(=O)c4c(oc13)-c1ccc(O)cc1OC4C=C(C)C)C=CC(C)(C)O2` (configuration not stated), for which the TGI in the test on A498 renal stood at 34.9 µM; with ACHN renal it was 24.7 µM; in the test on HCT-15 colon it was 24.8 µM; with HS 578T breast, 17.2 µM; in the test with LOX IMVI melanoma, 23.8 µM; in the test with M14 melanoma it was 35.4 µM. Further, the TGI stood at 23.3 µM in the test with MDA-MB-435; 25.2 µM in the test with OVCAR-3 ovarian; 35.9 µM in the test on OVCAR-5 ovarian; 14.9 µM with RPMI-8226 leukemia; 20.1 µM with RXF 393 renal; 29.2 µM with SK-MEL-28 melanoma. Moreover, the TGI in the test on SK-OV-3 ovarian came out at 33.3 µM; in the test with SNB-19 CNS, 30.2 µM; in the test on SNB-75 CNS, 25.3 µM; in the test with SW-620 colon it was 23.5 µM.

(Values after PubChem BioAssay (NCI).)
